In a melting point compilation (Tetko et al.; mined from patent text by program, amines drawn as free bases though some values may be those of a salt):

| melting point [°C] | Structure (SMILES) |
| --- | --- |
| 127 to 129 | Clc1ccccc1-c1nc(Cl)c2ccccc2n1 |
| 138 to 140 | CCOc1ccc(-c2nc(-c3ccc(OC4OC(CO)C(O)C(O)C4O)cc3)cs2)cc1OCC (stereo not drawn) |
| 115 to 116 | COC(=O)c1c(Nc2ccccc2)nn(C(C)=O)c1C |
| 199 to 201 | O=C(O)C=CC(=O)c1cccc([N+](=O)[O-])c1 |
| 204 to 206 | O=c1[nH]nc(Cc2ccncn2)c2ccccc12 |
| 167 to 168 | O=C(NS(=O)(=O)c1ccc(Oc2cccc(C(F)(F)F)c2)cc1)c1ccc(C(=O)NCCO)nc1 |
| 50 to 52 | C=CC(=O)Oc1ccc(N2C(=O)C(=C(C)C)/C(=C(\c3cc(C)oc3C)C(C)C)C2=O)cc1 |
| 106 to 108 | NCCCn1ccc2cc(NC(=O)c3nc4ccc(Cl)cc4n3Cc3ccccc3)ccc21 |
| 258 | O=c1c(-c2cccc(Cl)c2)coc2c(O)c(O)ccc12 |
| 110 | O=c1[nH]c2c(O)cccc2n1CCN1CCN(c2cccc(C(F)(F)F)c2)CC1 |
| 171 | COc1ccccc1N1Sc2ccccc2CC1=O |
| 247 to 249 | NC(CCc1ccccc1CP(=O)(O)O)C(=O)O (stereo not drawn) |
| > 246 | Nc1cc(C(=O)NC2CC2)n[nH]1 |
| 108 | CC(COc1ccc2ccc(N)nc2n1)CN(C)C (stereo not drawn) |
| 135 to 136 | CCCCCCCCCCc1ccc(CNc2ccc(C(=O)O)cc2)cc1 |
| 190 to 191 | CCc1nc(CCc2ccc(NC(=O)/C=C/c3cnn(C)c3-c3ccc(F)cc3)cc2)cs1 |
| 116 to 117 | O=C1NC(=O)c2ccccc2/C1=C/Nc1cccc(CN2CCCCCC2)c1 |
| 100 to 101 | O=C1NCC(Cc2ccccc2Oc2ccccc2)O1 (stereo not drawn) |
| 157 to 160 | O=C1OC(O)c2ccc([N+](=O)[O-])cc21 (stereo not drawn) |
| 147 to 148 | c1ccc(N2CCN(CC[C@H]3CC[C@H](c4c[nH]c5ccccc54)CC3)CC2)nc1 |

| melting point [°C] | Structure (SMILES) |
| --- | --- |
| 135 to 137 | O=C(O)C(=O)CC(=O)c1cc(CCc2ccccc2)cn1Cc1ccc(F)cc1 |
| 163 to 164 | CCCn1cnc(C(N)=O)c1NC(=S)NC(=O)c1ccccc1 |
| 62 to 64 | CCCN(CCCCNc1ncc(CC2CCCCC2)c(=O)[nH]1)c1ccccn1 |
| 110 | CCCC(=O)NC(C#N)C(=O)OCC (stereo not drawn) |
| 120 to 155 | Cc1cc(C2=CO[C@@](c3cc(Cl)cc(Cl)c3)(C(F)(F)F)C2)ccc1C(=O)NCC(=O)NCC(F)(F)F |
| 178 to 179 | NS(=O)(=O)c1ccc(OCCOc2ccc(C(=O)C(=O)O)cc2)cc1 |
| 92 to 93 | CCCc1c(OCc2ccc(C(=O)NCCCCc3cccnc3)c(OCC)c2)ccc(C(C)=O)c1O |
| 93.5 to 96.5 | COC(=O)CC(=O)Nc1cccc(COc2ccc(C(C)=O)c(OC)c2)c1 |
| 175 to 176 | Cc1nc(N2CCN(Cc3ccc(F)cc3)C2=O)sc1C(=O)NCc1ccncn1 |
| 136 to 137 | CC1CCc2ncc(C(=O)NN)c(=O)n21 (stereo not drawn) |
| 222 to 224 | O=C(CCl)Nc1cc(C(=O)NC(CO)CO)cc(C(=O)NC(CO)CO)c1 |
| 101 to 102 | CC(=O)c1c(O)cccc1OCC(O)COc1ccccc1C (stereo not drawn) |
| 125 to 127 | C1=CC2=Nc3ccccc3OCN2C=C1 |
| 135 to 137 | CCCC(=O)c1cnc2c(C)cccc2c1Nc1ccccc1OC |
| 160 to 162 | COC(=O)COc1cc2cccnc2c(-c2cccc([N+](=O)[O-])c2)n1 |
| 290 to 293 | CC(=O)NS(=O)(=O)c1cc(C(=O)O)cc(N)c1Oc1ccccc1 |
| 168 to 170 | CC(O)CNc1ccnc2cc(Cl)ccc12 (stereo not drawn) |
| 169 to 170 | CC(C)[C@H](NC(=O)OCc1csc(N2CCOCC2)n1)C(=O)N[C@@H](Cc1ccccc1)C[C@H](O)[C@H](Cc1ccccc1)NC(=O)OCc1cncs1 |
| > 300 | CN1CCN(CC(=O)Nc2cccc3c2C(=O)c2c-3n[nH]c2-c2ccc(N(C)C)cc2)CC1 |
| 125 to 127 | CCCN(c1ccncc1)N1C(=O)C(C)(C)c2ccccc21 |

Further lines, the compound ahead of its results:

| Structure (SMILES) | melting point [°C] |
| --- | --- |
| CC(C)CNS(=O)(=O)c1cccc(NC(=O)c2cnn3c(C(F)(F)F)cc(-c4ccc(C(F)(F)F)cc4)nc23)c1 | 205 |
| CC(C)Oc1cc(-n2c(Cl)nc(C(F)(F)F)cc2=O)c(F)cc1Br | 102 |
| COc1ccc(-c2cc(=Nc3c(C)cc(C)cc3C)n(C)c(N3CC=CCC3)n2)cc1OC | 161 to 163 |
| COc1sc(-c2csc(C(N)=O)n2)c(Cl)c1C | 201 to 203 |
| CC(C)CCCC(C)CCCC(C)CCCC(C)(O)C(CO)NCCO (stereo not drawn) | 49.1 to 50.2 |
| CCOC(=O)c1c(C(F)F)nc(C(F)(F)F)c(C(=O)OCC)c1N | 29 to 30 |
| CCn1c(=O)c(-c2c(Cl)cccc2Cl)cc2cnc(N)nc21 | 207 to 209 |
| COc1ccc(CBr)cc1[N+](=O)[O-] | 110 to 112 |
| Cc1cc(-c2nc3cccnn3c2-c2ccnc(NC(=O)NC3CCCCC3)c2)ccc1F | 229 to 230 |
| CCNC(=O)c1cc(NS(=O)(=O)c2ccc(C(F)(F)F)cn2)ccc1Oc1cncc(Cl)c1 | 147 to 148 |
| O=C1CCS(=O)(=O)C1=NO | 148 |
| CCCCCCCCCCCOc1ccc(-c2ccc(OCC(C)OC(=O)CC(C)C)cc2)cc1 (stereo not drawn) | 65.4 to 66.5 |
| CC1=Nc2cc(Cl)c(S)cc2S(=O)(=O)N1 | 304 to 305 |
| Cc1c(Cl)cc(NC(=O)C(=O)Nc2cc(Cl)c(C)c(Cl)c2O)c(O)c1Cl | 330 |
| OCc1nnc2n1-c1ccc(Cl)cc1C(c1ccccc1)=NC2 | 204 to 206 |
| Cn1nccc1COC(=O)Cc1ccccc1 | 80 to 83 |
| O=C1c2nccnc2C(O)N1c1ccc(Cl)cn1 (stereo not drawn) | 236 |

| Structure (SMILES) | melting point [°C] |
| --- | --- |
| O=Cc1cc(F)c(O)c(F)c1O | 141 to 143 |
| Cc1cnccc1-c1sc(NC(=O)c2ccncc2)nc1-c1ccco1 | 156 to 157 |
| COc1ccc(CN2CCC(=C3c4ccc(Cl)cc4CCc4cccnc43)CC2)cn1 | 60.2 to 64.1 |
| COC(=O)c1c(C(F)F)nc(C(F)(F)F)c(C(C#N)=C2OCCO2)c1CC(C)C | 121 to 122 |
| COC(=O)C(C#N)(CCCN(C)CCc1ccc(OC)c(OC)c1)c1ccc(OC)c(OC)c1 (stereo not drawn) | 129 to 130 |
| C=C(C)COc1c(C)c(CCC=O)c2c(c1C)CC(C)(C)O2 | 55.5 to 56 |
| O=Cc1cc2c(cc1O)OCCO2 | 114 to 115 |
| COC(=O)c1cc(CCNc2ncnc3nccnc23)ccc1Oc1cc(C(F)(F)F)ccn1 | 171 to 172 |
| C=CCC1(C)Cc2cc(O)c(Cl)c(Cl)c2C1=O (stereo not drawn) | 180 |
| c1cc2c(c(OCC3CO3)c1)CC1OC1C2 (stereo not drawn) | 85 to 87 |
| OC1CCN(c2ncc3ncnc(Nc4ccc(F)c(Cl)c4)c3n2)CC1 | 243 to 246 |
| Oc1cc(=S)sc2cccc(C(F)(F)F)c12 | 142 to 144 |
| COc1ccc(-c2cc(CN3CCN(C)CC3)c(=O)n(Cc3ccc(F)c(F)c3)n2)cc1F | 135 to 136 |
| CSC(=NCC(C)C)Nc1cc(Cl)cc(Cl)c1 | 150 |
| OCC1CCC(N2CCC(=C3c4ccc(F)cc4Sc4ccc(C(F)(F)F)cc43)CC2)CC1 (stereo not drawn) | 208 to 211 |
| CN(C)c1ccc(S(=O)(=O)N2CCCCC2=O)cc1 | 165 to 170 |
